US9914908B2, “Method of introducing a toxin or dye into mammalian pluripotent cells using rBC2LCN” (National Institute of Advanced Industrial Science and …, priority 2013, dated 2018)

Columns and labels:
Conditions in all cases: read-out: dissociation constant (Kd)
[1] = molecular target: T1, rBC2LCN-ETA fusion protein, rBC2LCN-(GSGGG)2-ETA (Burkholderia cenocepacia rBC2LCN, SEQ ID NO: 1, fused through spacer GSGGG, SEQ ID NO: 3, to cell-killing domain of Pseudomonas aeruginosa exotoxin A, SEQ ID NO: 2) (Burkholderia cenocepacia, UniProt B4EH86); assay: Binding affinity of rBC2LCN-ETA fusion protein to sugar chain ligands by frontal affinity chromatography
T1 construct: E. coli
Source text: (§1) The binding affinities of rBC2LCN-ETA and wild-type rBC2LCN to “Fucα1-2Galβ1-3GlcNAc (H type 1)” and “Fucα1-2Galβ1-3GalNAc (H type 3)” as sugar chain ligands for rBC2LCN were examined by frontal affinity chromatography (Non Patent Literature 8). The results are shown below (Table 1).

[2] = molecular target: T2, rBC2LCN (recombinant BC2LCN lectin, N-terminal domain of BC2L-C protein, Burkholderia cenocepacia), wild-type, SEQ ID NO: 1 (Burkholderia cenocepacia, UniProt B4EH86); assay: Binding affinity of wild-type rBC2LCN to sugar chain ligands by frontal affinity chromatography
T2 sequence (B4EH86 1-156): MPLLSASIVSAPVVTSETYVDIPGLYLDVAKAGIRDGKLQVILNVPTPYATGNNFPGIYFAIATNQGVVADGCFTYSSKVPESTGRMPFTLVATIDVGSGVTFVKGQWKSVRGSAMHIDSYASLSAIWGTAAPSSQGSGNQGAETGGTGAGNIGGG
Source text: as §1

[3] = molecular target: T3, rBC2LCN-ETA fusion protein, rBC2LCN-(GSGGG)2-ETA (Burkholderia cenocepacia rBC2LCN, SEQ ID NO: 1, fused through spacer GSGGG, SEQ ID NO: 3, to cell-killing doma (Burkholderia cenocepacia, UniProt B4EH86)); assay: Binding affinity of rBC2LCN-ETA fusion protein to sugar chain ligands by frontal affinity chromatography; parameters: species or system Burkholderia cenocepacia / Pseudomonas aeruginosa
T3 construct: E. coli
Source text: as §1

SMILES	Kd [1] [µM]	Kd [2] [µM]	Kd [3] [µM]
CC(=O)N[C@H]1[C@H](Oc2ccc([N+](=O)[O-])cc2)O[C@H](CO)[C@@H](O)[C@@H]1O[C@@H]1O[C@H](CO)[C@H](O)[C@H](O)[C@H]1O[C@@H]1O[C@@H](C)[C@@H](O)[C@@H](O)[C@@H]1O [H type1-pNP]	8.3	9.9	
CC(=O)N[C@H]1[C@@H](Oc2ccc([N+](=O)[O-])cc2)O[C@H](CO)[C@H](O)[C@@H]1O[C@@H]1O[C@H](CO)[C@H](O)[C@H](O)[C@H]1O[C@@H]1O[C@@H](C)[C@@H](O)[C@@H](O)[C@@H]1O [H type3-pNP]		32.3	25.4
CC(=O)N[C@H]1[C@@H](Oc2ccc([N+](=O)[O-])cc2)O[C@H](CO)[C@H](O)[C@@H]1O[C@@H]1O[C@H](CO)[C@H](O)[C@H](O)[C@H]1O[C@@H]1O[C@@H](C)[C@@H](O)[C@@H](O)[C@@H]1O [H type 3, Fucα1-2Galβ1-3GalNAc]		25.4	32.3
